For data set [1], the system named is Rattus norvegicus. Description: Anti-inflammatory activity in Rattus norvegicus Wistar (rat) assessed as inhibition of carrageenan-induced paw edema at dose molecularly equivalent to 20 mg/kg of ibuprofen administered as po after 3 hr relative to ibuprofen. The data set is classed as functional. For orientation: The carrageenan paw model is a standard test of acute inflammation.

For data set [2], the system named is Mus musculus. The data set can be described thus: Analgesic activity in Mus musculus Swiss albino (mouse) assessed as protection against acetic acid-induced writhing effect at 20 mg/kg, po after 3 hr relative to control. The data set is classed as functional. A general note: In writhing tests, fewer writhes than in controls are read as antinociception.
The subject of data set [3] is Rattus norvegicus. The data set can be described thus: Gastrointestinal toxicity in Rattus norvegicus Wistar (rat) assessed as ulcer index at dose molecularly equivalent to 60 mg/kg of ibuprofen administered as po. The data set is classed as organism-based. The arrangement: dose 60 mg/kg, route oral. The settings on record: in vivo.
For data set [4], the system named is Rattus norvegicus. Description: Anti-inflammatory activity in Rattus norvegicus Wistar (rat) assessed as inhibition of carrageenan-induced paw edema at 20 mg/kg, po after 3 hr relative to control. The data set is classed as functional.
The subject of data set [5] is Rattus norvegicus. Description: Gastrointestinal toxicity in Rattus norvegicus Wistar (rat) assessed as ulcer index at 60 mg/kg, po. The class given is organism-based. The arrangement: dose 60 mg/kg, route oral. The settings on record: in vivo.

These results are taken from ChEMBL document CHEMBL3046542, “Synthesis of some new 3,4-dihydro-2H-1,3-benzoxazines under microwave irradiation in solvent-free conditions and their biological activity” (Med Chem Res, 2011).

As a reminder, the inhibition in vivo is the relative decrease from the control value, in per cent.

In the case of `COc1cc(/C=C/C(=O)c2ccc3c(c2)CN(c2ccc(C)cc2)CO3)cc(OC)c1OC`, in data set [1], the inhibition in vivo was 56.5%. In the case of `Cc1ccc(N2COc3ccc(C(=O)/C=C/c4ccc(Cl)cc4)cc3C2)cc1`, in data set [1], the inhibition in vivo turned out to be 63.4%.

As to `Cc1ccc(N2COc3ccc(C(=O)/C=C/c4ccc(Cl)cc4Cl)cc3C2)cc1`, the Activity in data set [2] is recorded as 55.47%. The inhibition in vivo in data set [1] was determined as 71.9%. The UI in data set [3] is reported as 0.17. Turning to `COc1ccc(N2COc3ccc(C(=O)/C=C/c4ccccc4Cl)cc3C2)cc1`, the inhibition in vivo in data set [1] was determined as 63.4%. Still for that read-out and setting: to `COc1ccc(/C=C/C(=O)c2ccc3c(c2)CN(c2ccc(OC)cc2)CO3)cc1` belongs 61.2%. Same read-out and setting: to `COc1ccc(N2COc3ccc(C(=O)/C=C/c4ccccc4O)cc3C2)cc1` belongs 55.7%. Consider `COc1ccc(N2COc3ccc(C(=O)/C=C/c4cc(OC)c(OC)c(OC)c4)cc3C2)cc1`, for which the inhibition in vivo in data set [1] was found to be 62.2%. For the compound `COc1ccc(N2COc3ccc(C(=O)/C=C/c4ccc(Cl)cc4)cc3C2)cc1`, in data set [2], the Activity is recorded as 52.22%. In addition, the inhibition in vivo in data set [1] came to 67.4%. Moreover, the UI in data set [3] came to 0.25. Regarding `COc1ccc(N2COc3ccc(C(=O)/C=C/c4ccc(Cl)cc4Cl)cc3C2)cc1`, the Activity in data set [2] came to 57.38%. Also, the inhibition in vivo in data set [1] came to 74.9%. In addition, the UI in data set [3] is reported as 0.08. On to `Cc1ccc(N2COc3ccc(C(=O)/C=C/c4ccccc4Cl)cc3C2)cc1`, for which the inhibition in vivo in data set [1] was found to be 60.4%. Take `COc1ccc(/C=C/C(=O)c2ccc3c(c2)CN(c2ccc(C)cc2)CO3)cc1`: the Activity in data set [2] is given as 54.27%. Further, the inhibition in vivo in data set [1] is 70.4%. Further, the UI in data set [3] was found to be 0.17. Take `Cc1ccc(N2COc3ccc(C(=O)/C=C/c4ccccc4O)cc3C2)cc1`: the inhibition in vivo in data set [1] is 51%.

In the case of `CC(C)Cc1ccc(C(C)C(=O)O)cc1` (stereo not drawn) [IBUPROFEN], in data set [4], the inhibition in vivo at 20 mg/kg is 82.3%. Besides, in data set [2], the Activity stood at 63.06%. The UI in data set [5] was 1.
